Source: patent US20240041853A1, “DOSAGE REGIMEN FOR A NR2B-NMDA RECEPTOR NAM FOR THE TREATMENT OF DEPRESSION” (Novartis AG, priority 2020, published 2024)

What was measured:
[1] = Garner et al 2015; Pagnozzi et al 1995; Preskorn et al 2008; cited from earlier work
[2] = system: patients with treatment resistant depression (TRD); experiment: Phase IIa proof of concept study, efficacy (MADRS, CGI-I); format: in vivo, human
Description: (§1) A multi-center, randomized, subject and investigator blinded, placebo controlled, active comparator, parallel group, proof of concept study to evaluate the efficacy, safety, tolerability, and pharmacokinetics of Compound (I) in patients with treatment resistant depression (TRD). The study included two different active Compound (I) doses of 0.16 mg/kg and 0.32 mg/kg given in two different regiments—weekly and bi-weekly (every other week). The study also included a ketamine arm.
(§2) Adults with major depressive disorder and prior failure of ≥2 standard antidepressants of adequate dose and >8 weeks duration in a major depressive episode (per DSM-5 criteria) and Montgomery-Åsberg Depression Rating Scale (MADRS) score ≥24 were eligible. Patients were randomized (3:3:3:3:6:4) to one of six treatment arms for 36 days: low dose (0.16 mg/kg) Compound (I) weekly (N=11) or every other week (q2w [N=10]); high dose (0.32 mg/kg) Compound (I) weekly (N=10) or q2w (N=9); placebo (N=20); or ketamine 0.5 mg/kg weekly (N=10). Change in MADRS total score at 24 hours (h) from baseline (primary endpoint), was analyzed using analysis of covariance. Secondary endpoints included change in MADRS score at 48 hours and 6 weeks and clinical global impression-improvement (CGI-I) score at 24 hours, 48 hours and 6 weeks. Safety and tolerability were also assessed.

[3] = system: patients with treatment resistant depression (TRD); experiment: Phase IIa proof of concept study, safety and tolerability (adverse events); format: in vivo, human
Description: as §1, §2

[4] = system: patients with unipolar and bipolar depression; conditions: cited from earlier work

## C[C@@H]([C@@H](O)c1ccc(O)cc1)N1CCC(O)(c2ccccc2)CC1 [CP-101,606]
[1]
  frequency of dissociative adverse events: low frequencies of dissociative adverse events

## Oc1ccc([C@@H](O)CN2C[C@H]3C[C@H](Oc4ccccc4F)C[C@H]3C2)nc1 [Compound (I)]
[2]; 0.16 mg/kg or 0.32 mg/kg, weekly or every other week
  time in which efficacy occurred: ≤ 24 h
[2]; Week 6, 0.16 mg/kg q2w, 80% CI [−11.8, −1.15], p=0.059, greatest benefit
  ΔAM [80% CI] in MADRS score vs placebo: −6.46
[2]; after repeated dosing
  maintenance of efficacy: maintained at 6 weeks
[2]; at 24 hours, 48 hours and 6 weeks
  CGI-I scores vs placebo: suggested benefits
[2]; at 24 hours, pooled 0.16 mg/kg, p=0.001
  Adjusted mean difference (ΔAM) in MADRS vs placebo: −8.25
[2]; at 24 hours, pooled Compound (I) 0.16 mg/kg group (weekly and q2w)
  mean decrease in MADRS score: 15.51 points
[2]; at 24 hours, pooled Compound (I) 0.32 mg/kg group (weekly and q2w)
  mean decrease in MADRS score: 12.98 points
[2]; at 24 hours, second pooled Compound (I) group (dose figure missing in print), p=0.019
  Adjusted mean difference (ΔAM) in MADRS vs placebo: −5.71
[2]; at 48 h, pooled 0.16 mg/kg, p=0.013
  Adjusted mean difference (ΔAM) in MADRS vs placebo: −7.06
[2]; at 48 h, second pooled Compound (I) group (dose figure missing in print), p=0.013
  Adjusted mean difference (ΔAM) in MADRS vs placebo: −7.37
[2]; each administered once every week or once every other week
  efficacy of 0.16 mg/kg compared with 0.32 mg/kg: as effective as a dose of 0.32 mg/kg
[2]; patients with TRD, overall conclusion
  improvement in MADRS score vs placebo: significant improvement
[3]; in vivo
  Time to both onset and resolution of dissociative AEs and sedation: longer for Compound (I) than for ketamine
  safety signals: No new safety signals were identified

## Cc1ccc(COC(=O)N2CC[C@H](CNc3ncccn3)[C@H](F)C2)cc1 [MK-0657]
[1]
  frequency of dissociative adverse events: low frequencies of dissociative adverse events

## CNC1(c2ccccc2Cl)CCCCC1=O (stereo not drawn) [ketamine]
[2]; at 24 hours, ketamine 0.5 mg/kg weekly, p=0.046
  Adjusted mean difference (ΔAM) in MADRS vs placebo: −5.67
[2]; at 24 hours, ketamine group, 0.5 mg/kg weekly
  mean decrease in MADRS score: 12.94 points
[2]; at 48 h, ketamine 0.5 mg/kg weekly, p=0.019
  Adjusted mean difference (ΔAM) in MADRS vs placebo: −11.02
[3]; ketamine 0.5 mg/kg weekly
  Adverse events (AEs), patients: 50%
  Dissociative AEs, patients: 50%
  incidence of sedation: 10%
[4]; Katalinic et al 2013, Murrough et al 2015
  effect on suicidality: reduce suicidality
[4]; single dose 0.5 mg/kg infused over 40 minutes, 7 patients, Berman et al 2000
  antidepressant effects: rapid antidepressant effects
